The source of these data is ChEMBL document CHEMBL3039007, “Structure-based identification of OATP1B1/3 inhibitors” (Mol Pharmacol, 2013).

Data set [1] deals with T1, Solute carrier organic anion transporter family member 1B1 (Homo sapiens, UniProt Q9Y6L6).
T1 sequence (Q9Y6L6 whole entry): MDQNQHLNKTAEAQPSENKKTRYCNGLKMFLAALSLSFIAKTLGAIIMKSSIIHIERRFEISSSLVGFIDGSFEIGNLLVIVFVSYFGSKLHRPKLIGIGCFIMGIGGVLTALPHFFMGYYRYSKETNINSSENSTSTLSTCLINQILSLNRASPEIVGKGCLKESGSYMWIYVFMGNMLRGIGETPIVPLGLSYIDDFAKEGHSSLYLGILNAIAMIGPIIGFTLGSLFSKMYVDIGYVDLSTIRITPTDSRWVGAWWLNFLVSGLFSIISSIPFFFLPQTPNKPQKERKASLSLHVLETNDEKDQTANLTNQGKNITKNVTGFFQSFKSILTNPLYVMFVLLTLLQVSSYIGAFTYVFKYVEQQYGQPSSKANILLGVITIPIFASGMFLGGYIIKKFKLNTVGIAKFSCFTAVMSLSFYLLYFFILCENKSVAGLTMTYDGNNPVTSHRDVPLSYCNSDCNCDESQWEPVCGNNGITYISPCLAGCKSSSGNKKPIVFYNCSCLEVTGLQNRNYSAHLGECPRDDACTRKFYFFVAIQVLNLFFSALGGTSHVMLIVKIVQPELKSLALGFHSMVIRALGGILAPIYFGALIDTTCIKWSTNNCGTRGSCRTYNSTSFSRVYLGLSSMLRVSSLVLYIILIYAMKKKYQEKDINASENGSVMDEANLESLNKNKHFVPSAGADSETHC
The note with it: chinese hamster, cho, 10 µM.

In data set [2] the target is T2, Solute carrier organic anion transporter family member 1B3 (Homo sapiens, UniProt Q9NPD5).
T2 sequence (Q9NPD5 whole entry): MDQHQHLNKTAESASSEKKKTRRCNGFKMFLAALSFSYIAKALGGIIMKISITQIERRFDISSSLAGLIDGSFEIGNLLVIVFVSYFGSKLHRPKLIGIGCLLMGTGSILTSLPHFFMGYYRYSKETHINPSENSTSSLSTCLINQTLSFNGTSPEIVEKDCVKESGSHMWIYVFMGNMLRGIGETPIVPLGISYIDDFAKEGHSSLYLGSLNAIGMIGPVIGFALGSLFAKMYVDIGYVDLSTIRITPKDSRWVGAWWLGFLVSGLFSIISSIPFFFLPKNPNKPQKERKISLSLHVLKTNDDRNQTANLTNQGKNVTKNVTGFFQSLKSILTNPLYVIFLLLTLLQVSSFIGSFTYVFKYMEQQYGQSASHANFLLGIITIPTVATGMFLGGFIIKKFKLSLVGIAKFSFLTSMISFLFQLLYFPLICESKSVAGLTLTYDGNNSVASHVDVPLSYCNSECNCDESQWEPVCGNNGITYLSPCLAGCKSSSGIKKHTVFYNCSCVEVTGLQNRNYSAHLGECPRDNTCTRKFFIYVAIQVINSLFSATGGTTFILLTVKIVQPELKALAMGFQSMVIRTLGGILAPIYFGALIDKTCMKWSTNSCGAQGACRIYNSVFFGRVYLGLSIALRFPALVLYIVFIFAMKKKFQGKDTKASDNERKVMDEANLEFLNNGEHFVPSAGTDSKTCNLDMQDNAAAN
The note with it: chinese hamster, cho, 10 µM.

Residues, ends and D or L forms follow the SMILES beside them.

The residual activity is the signal under treatment as a percentage of the control signal.

`O=C1C=C(O)C(=O)c2ccccc21` [LAWSONE]: the residual activity in data set [1] is recorded as 99.76%; in data set [2], 101.6%.
As to `Cc1cc(OC(=O)c2c(C)cc(O)cc2O)cc(O)c1C(=O)O` [LECANORIC ACID], the residual activity in data set [1] was 61.21%; in data set [2], 60.79%.
Regarding `CC(C)C[C@H](N)C(=O)N[C@@H](C)C(=O)O` [LEU-ALA] (H-Leu-Ala-OH), the residual activity in data set [1] was 93.04%; in data set [2], 96.54%.
As for `N=c1[nH]c(=O)c2[nH]c(=O)c(=O)[nH]c2[nH]1` [LEUCOPTERIN], the residual activity in data set [1] is 136.6%; in data set [2], 98.11%.
In the same order, the values of `Nc1nc(=O)c2c([nH]1)NCC(CNc1ccc(C(=O)N[C@@H](CCC(=O)[O-])C(=O)[O-])cc1)N2C=O.[Ca+2]` (stereo not given in full) [LEUCOVORIN CALCIUM] are 80.81% and 90.54%.
In the case of `CC(C)(C)NC[C@H](O)c1ccc(O)c(CO)c1.Cl` [LEVALBUTEROL HYDROCHLORIDE], the results for the residual activity in data set [1] and in data set [2] were 95.04% and 85.66%, respectively.
Taken in the same sequence, the figures for `Cl.c1ccc([C@H]2CN3CCSC3=N2)cc1` [LEVAMISOLE HYDROCHLORIDE] were 121.8% and 102.9%.
As to `N[C@@H](Cc1ccc(O)c(O)c1)C(=O)O` [LEVODOPA], the residual activity in data set [1] amounted to 86.05%; in data set [2], 90.65%.
In the same order, the values of `C[C@H]1COc2c(N3CCN(C)CC3)c(F)cc3c(=O)c(C(=O)O)cn1c23.C[C@H]1COc2c(N3CCN(C)CC3)c(F)cc3c(=O)c(C(=O)O)cn1c23.O` [LEVOFLOXACIN] are 117.4% and 95.07%.
Turning to `CC(C)=CCC[C@](C)(O)[C@@H]1CC=C(C)CC1` [LEVOMENOL], the values for the residual activity in data set [1] and in data set [2] were 83.39% and 97.78%, respectively.
As for `C[C@H](N)[C@H](O)c1ccc(O)c(O)c1` [LEVONORDEFRIN], the figures for the residual activity in data set [1] and in data set [2] were 58.62% and 80.26%, respectively.
On to `CC(=O)/C(=C\c1ccccc1)CC(=O)O` [LEVULINIC ACID,  3-BENZYLIDENYL-], for which the residual activity is 134.7% in data set [1] and 110.1% in data set [2].
Consider `CCC/C=C1\OC(=O)C2=C1CCC=C2` [LIGUSTILIDE], for which the results for the residual activity in data set [1] and in data set [2] were 117.7% and 107.5%, respectively.
Taken in the same sequence, the figures for `CC1(C)O[C@H]2CC(=O)OC[C@]23[C@H]2CC[C@@]4(C)[C@H](c5ccoc5)OC(=O)[C@H]5O[C@]54[C@]2(C)C(=O)C[C@@H]13` [LIMONIN] were 102.2% and 92.09%.
In the case of `C=C[C@](C)(O)CCC=C(C)C` [LINALOOL (+)], the residual activity in data set [1] was 102.5%; in data set [2] it was 117.7%.
Turning to `CC(C)(C#N)O[C@@H]1O[C@H](CO)[C@@H](O)[C@H](O)[C@H]1O` [LINAMARIN], the residual activity was 131.3% in data set [1] and 97.67% in data set [2].
Take `CCC[C@@H]1C[C@@H](C(=O)N[C@@H]([C@H]2O[C@H](SC)[C@H](O)[C@@H](O)[C@H]2O)[C@@H](C)O)N(C)C1.Cl.O` [LINCOMYCIN HYDROCHLORIDE]: the residual activity is listed as 83.01% in data set [1] and 97.7% in data set [2].
Taken in the same sequence, the figures for `Cl[C@H]1[C@H](Cl)[C@@H](Cl)[C@@H](Cl)[C@H](Cl)[C@H]1Cl` [LINDANE] were 79.82% and 90.09%.
Taken in the same sequence, the figures for `O=C(O)CCCCC1CCSS1` (stereo not drawn) [LIPOIC ACID, ALPHA] were 129.1% and 103.3%.
Turning to `COc1ccc(C2CC(=O)c3ccc(OC)cc3O2)cc1` (stereo not given) [LIQUIRITIGENIN DIMETHYL ETHER], the residual activity stood at 104.2% in data set [1] and 114.3% in data set [2].
In the same order, the values of `C[C@H](CCC(=O)O)[C@H]1CC[C@H]2[C@@H]3CC[C@@H]4C[C@H](O)CC[C@]4(C)[C@H]3CC[C@]12C` [LITHOCHOLIC ACID] are 6.612% and 60.21%.
Consider `CN1[C@@H](CC(=O)c2ccccc2)CCC[C@H]1C[C@H](O)c1ccccc1.Cl` [LOBELINE HYDROCHLORIDE], for which the values for the residual activity in data set [1] and in data set [2] were 125.6% and 108.5%, respectively.
In the same order, the values of `C[C@@H]1[C@H]2[C@H](O[C@@H]3O[C@H](CO)[C@@H](O)[C@H](O)[C@H]3O)OC=C(C(=O)O)[C@H]2C[C@@H]1O` [LOGANIC ACID] are 49.18% and 99.49%.
In the same order, the values of `COC(=O)C1=CO[C@@H](O[C@@H]2O[C@H](CO)[C@@H](O)[C@H](O)[C@H]2O)[C@@H]2[C@@H](C)[C@@H](O)C[C@H]12` [LOGANIN] are 98.87% and 87.42%.
In the same order, the values of `CC1(C)Oc2ccc3ccc(=O)oc3c2CC1O` (stereo not given) [LOMATIN] are 92.91% and 142.3%.
For the compound `COc1c2c(c(CC=C(C)C)c3oc(=O)c(-c4ccc(O)cc4)c(O)c13)OC(C)(C)C=C2` [LONCHOCARPIC ACID], the residual activity in data set [1] is 26.49%; in data set [2], 36.3%.
In the same order, the values of `O=C(O)c1nn(Cc2ccc(Cl)cc2Cl)c2ccccc12` [LONIDAMINE] are 129% and 108%.
As to `CN(C)C(=O)C(CCN1CCC(O)(c2ccc(Cl)cc2)CC1)(c1ccccc1)c1ccccc1.Cl` [LOPERAMIDE HYDROCHLORIDE], the results for the residual activity in data set [1] and in data set [2] were 51.98% and 94.1%, respectively.
Consider `CCCCc1nc(Cl)c(CO)n1Cc1ccc(-c2ccccc2-c2nn[nH]n2)cc1` [LOSARTAN], for which the residual activity in data set [1] amounted to 23.21%; in data set [2] it was 3.759%.
In the case of `CN1CCN(C2=Nc3ccccc3Oc3ccc(Cl)cc32)CC1.O=C(O)CCC(=O)O` [LOXAPINE SUCCINATE], the residual activity was found to be 140.7% in data set [1] and 117.8% in data set [2].
Taken in the same sequence, the figures for `O=C(NC(=O)c1c(F)cccc1F)Nc1cc(Cl)c(OC(F)(F)C(F)C(F)(F)F)cc1Cl` (stereo not given) [LUFENURON] were 102.8% and 97.09%.
Taken in the same sequence, the figures for `Cl.O=C(O)CCC1NCC2CC1CN1CCCCC21` (stereo not given) [LUPANYL ACID HYDROCHLORIDE] were 104.4% and 103.3%.
For the compound `OC[C@@H]1CCCN2CCCC[C@H]12` [LUPININE], the residual activity stood at 114.4% in data set [1] and 90.27% in data set [2].
In the same order, the values of `O[C@H]1[C@H]2c3cc4c(cc3CN3CCC(=C[C@@H]1O)[C@H]23)OCO4` [LYCORINE] are 60.96% and 97.14%.
Regarding `NCCCC[C@H](NC(=O)[C@H](Cc1ccc(O)cc1)NC(=O)[C@@H](N)CCCCN)C(=O)O` [LYSYL-TYROSYL-LYSINE ACETATE] (H-Lys-Tyr-Lys-OH), the residual activity was found to be 85.47% in data set [1] and 124.3% in data set [2].
For the compound `NCCCC[C@H](N)C(=O)N[C@@H](Cc1ccccc1)C(=O)N[C@@H](Cc1ccc(O)cc1)C(=O)O` [LYSYLPHENYLALANYLTYROSINE] (H-Lys-Phe-Tyr-OH), the residual activity was 100.8% in data set [1] and 112.2% in data set [2].
For `Oc1ccc2c(c1)OC[C@H]1c3cc4c(cc3O[C@@H]21)OCO4` [MAACKIAIN], the results for the residual activity in data set [1] and in data set [2] were 108.2% and 114.4%, respectively.
Taken in the same sequence, the figures for `Cl.NCc1ccc(S(N)(=O)=O)cc1` [MAFENIDE HYDROCHLORIDE] were 81.65% and 85.4%.
In the same order, the values of `COc1cc2c(cc1O)[C@@H](Cc1ccc(O)cc1)[N+](C)(C)CC2.[I-]` [MAGNOCURARINE IODIDE] are 91.83% and 96.29%.
In the same order, the values of `Cc1occc(=O)c1O` [MALTOL] are 79.28% and 74.61%.
